Results from US12568971B2, “Degradative method” (Catexel Technologies Limited, priority 2020, dated 2026).

Key:
[1] = Dynamic viscosity of alginate solution after treatment (alginate depolymerisation), Brookfield cone/plate viscometer
Experimental: The bottle was placed in a warm water bath (50° C.) for 60 minutes before being removed and cooled in an ice bath. Finally, the dynamic viscosity was determined using a Brookfield viscosity meter as outlined below. Note 1: A 2 mM solution of [[…])2 (see description of stock 12 above) was mixed with equivalent volume of the 2 mM ascorbic acid stock solution (stock solution 7). Upon contact with the ascorbic acid, the catalyst turned from orange/red to red/purple. Note 2: 0.5 mL of both Me3-TACN ligand (stock solution 10) and MnSO4·H2O (stock solution 8) were mixed, stirred and used as a source of catalyst to be placed in the alginate solution. The dynamic viscosity of the samples was measured using a Brookfield HBDV-II cone/plate viscosity meter equipped with a spindle CPE-40. The viscometer was linked to a water bath to maintain the temperature at 25° C. The apparatus was controlled via computer (external mode) using the Rheocalc software. Initially, the viscometer was zeroed without spindle. Then, the spindle CPE-40 was installed and the gap between the bottom of the cone and the top of the cup was set according to the recommendations given by Brookfield. 0.5 mL of the treated alginate solution was placed in the cup of the viscometer using a disposable plastic syringe before the apparatus was closed and the test program launched. […] Results.

[2] = as above; remark: listed apart in the source

For `CC(=O)[O-].CC(=O)[O-].CN1CCN(C)CCN(C)CC1.CN1CCN(C)CCN(C)CC1.[Mn+4].[Mn+4].[O-2].[O-2].[O-2]` [[Mn2(μ-O)3(Me3-TACN)2]^2+, [Mn^IVMn^IV(μ-O)3(1,4,7-trimethyl-1,4,7-triazacyclononane)2][CH3COO]2], the “Dynamic Viscosity” value ([1]; 2.5 μM, pH 8.0, 20 mM H2O2, 4.7 mM NaHCO3, 1 h at 50° C.) was 85.0 mPa.s, the “Dynamic Viscosity” value ([1]; 2.5 μM, pH 8.5, 20 mM H2O2, 4.7 mM NaHCO3, 1 h at 50° C.) was 72.2 mPa.s and the “Dynamic Viscosity” value ([1]; 2.5 μM, pH 9.0, 20 mM H2O2, 4.7 mM NaHCO3, 1 h at 50° C.) was 55.7 mPa.s. For the same compound, the “Dynamic Viscosity” value ([1]; 2.5 μM, pH 9.0, 20 mM H2O2, 1 h at 50° C.) was 99.7 mPa · s, the “Dynamic Viscosity” value ([1]; 2.5 μM, pH 9.5, 20 mM H2O2, 4.7 mM NaHCO3, 1 h at 50° C.) was 59.5 mPa.s and the “Dynamic Viscosity” value ([1]; 2.5 μM, pH 9.5, 20 mM H2O2, 1 h at 50° C.) was 76.8 mPa · s. For the same compound, the “Dynamic Viscosity” value ([1]; 2.5 μM, pH 10.0, 20 mM H2O2, 4.7 mM NaHCO3, 1 h at 50° C.) was 81.2 mPa.s, the “Dynamic Viscosity” value ([1]; 2.5 μM, pH 10.0, 20 mM H2O2, 1 h at 50° C.) was 60.6 mPa · s and the “Dynamic Viscosity” value ([1]; 2.5 μM, pH 10.5, 20 mM H2O2, 4.7 mM NaHCO3, 1 h at 50° C.) was 67.5 mPa.s. The “Dynamic Viscosity” value ([1]; 2.5 μM, pH 10.5, 20 mM H2O2, 1 h at 50° C.) was 56.6 mPa · s, the “Dynamic Viscosity” value ([1]; 2.5 μM, pH 11.0, 20 mM H2O2, 1 h at 50° C.) was 64.8 mPa · s and the “Dynamic Viscosity” value ([1]; 5 μM, 20 mM ^tBuOOH, 0.25 g/L sodium tetraborate decahydrate pH 9, 60 min at 50° C.) was 52.3 mPa · s. The “Dynamic Viscosity” value ([1]; 5 μM, pH 8.0, 20 mM H2O2, 4.7 mM NaHCO3, 1 h at 50° C.) was 50.9 mPa.s, the “Dynamic Viscosity” value ([1]; 5 μM, pH 8.5, 20 mM H2O2, 4.7 mM NaHCO3, 1 h at 50° C.) was 38.6 mPa.s and the “Dynamic Viscosity” value ([1]; 5 μM, pH 9, 10 mM H2O2, 4.7 mM NaHCO3, 60 min at 50° C.) was 21.6 mPa · s. The “Dynamic Viscosity” value ([1]; 5 μM, pH 9.0, 20 mM H2O2, 4.7 mM NaHCO3, 1 h at 50° C.) was 24.1 mPa.s, the “Dynamic Viscosity” value ([1]; 5 μM, pH 9.0, 20 mM H2O2, 1 h at 50° C.) was 78.1 mPa · s and the “Dynamic Viscosity” value ([1]; 5 μM, pH 9.5, 20 mM H2O2, 4.7 mM NaHCO3, 1 h at 50° C.) was 28.0 mPa.s. For the same compound, the “Dynamic Viscosity” value ([1]; 5 μM, pH 9.5, 20 mM H2O2, 1 h at 50° C.) was 41.3 mPa · s, the “Dynamic Viscosity” value ([1]; 5 μM, pH 10, 10 mM H2O2, 4.7 mM NaHCO3, 60 min at 50° C.) was 40.6 mPa · s and the “Dynamic Viscosity” value ([1]; 5 μM, pH 10.0, 20 mM H2O2, 4.7 mM NaHCO3, 1 h at 40° C.) was 54.2 mPa · s. The “Dynamic Viscosity” value ([1]; 5 μM, pH 10.0, 20 mM H2O2, 4.7 mM NaHCO3, 1 h at 50° C.) was 61.0 mPa.s, the “Dynamic Viscosity” value ([1]; 5 μM, pH 10.0, 20 mM H2O2, 1 h at 50° C.) was 27.2 mPa · s and the “Dynamic Viscosity” value ([1]; 5 μM, pH 10.5, 20 mM H2O2, 4.7 mM NaHCO3, 1 h at 50° C.) was 57.0 mPa.s. For the same compound, the “Dynamic Viscosity” value ([1]; 5 μM, pH 10.5, 20 mM H2O2, 1 h at 50° C.) was 25.6 mPa · s, the “Dynamic Viscosity” value ([1]; 5 μM, pH 11, 10 mM H2O2, 4.7 mM NaHCO3, 60 min at 50° C.) was 62.1 mPa · s and the “Dynamic Viscosity” value ([1]; 5 μM, pH 11.0, 20 mM H2O2, 1 h at 50° C.) was 40.4 mPa · s. The “Dynamic Viscosity” value ([1]; 10 μM +1 molar equivalent ascorbic acid, pH 9.0, 0 mM Dequest 2047, 20 mM H2O2, 4.7 mM NaHCO3, 60 minutes at room temperature) was 7.9 mPa · s, the “Dynamic Viscosity” value ([1]; 10 μM +1 molar equivalent ascorbic acid, pH 9.0, 20 mM H2O2, 4.7 mM NaHCO3, 60 minutes at 40° C.) was 7.4 mPa.s and the “Dynamic Viscosity” value ([1]; 10 μM, no ascorbic acid, pH 9.5, 0 mM Dequest 2047, 20 mM H2O2, 4.7 mM NaHCO3, 60 minutes at room temperature) was 19.3 mPa · s. The “Dynamic Viscosity” value ([1]; 10 μM, no ascorbic acid, pH 10.5, 1.0 mM Dequest 2047, 20 mM H2O2, 4.7 mM NaHCO3, 60 minutes at room temperature) was 42.6 mPa · s, the “Dynamic Viscosity” value ([1]; 10 μM, 1.5 mM PAA + 1.5 mM H2O2, 0.185M Tris buffer, pH 8.5, 60 min at 30° C.) was 85.3 mPa · s and the “Dynamic Viscosity” value ([1]; 10 μM, 3 mM H2O2, 0.185M Tris buffer, pH 8.5, 60 min at 30° C.) was 49.4 mPa · s. The “Dynamic Viscosity” value ([1]; 10 μM, pH 8.0, 20 mM H2O2, 4.7 mM NaHCO3, 1 h at 40° C.) was 24.2 mPa · s, the “Dynamic Viscosity” value ([1]; 10 μM, pH 8.0, 20 mM H2O2, 4.7 mM NaHCO3, 1 h at 50° C.) was 26.3 mPa.s and the “Dynamic Viscosity” value ([1]; 10 μM, pH 8.5, 20 mM H2O2, 4.7 mM NaHCO3, 1 h at 50° C.) was 16.1 mPa.s. For the same compound, the “Dynamic Viscosity” value ([1]; 10 μM, pH 9.0, 20 mM H2O2, 4.7 mM NaHCO3, 1 h at 40° C.) was 9.1 mPa · s, the “Dynamic Viscosity” value ([1]; 10 μM, pH 9.0, 20 mM H2O2, 4.7 mM NaHCO3, 1 h at 50° C.) was 9.4 mPa.s and the “Dynamic Viscosity” value ([1]; 10 μM, pH 9.0, 20 mM H2O2, 1 h at 50° C.) was 47.9 mPa · s. The “Dynamic Viscosity” value ([1]; 10 μM, pH 9.5, 20 mM H2O2, 4.7 mM NaHCO3, 1 h at 40° C.) was 10.5 mPa · s, the “Dynamic Viscosity” value ([1]; 10 μM, pH 9.5, 20 mM H2O2, 4.7 mM NaHCO3, 1 h at 50° C.) was 12.8 mPa.s and the “Dynamic Viscosity” value ([1]; 10 μM, pH 9.5, 20 mM H2O2, 1 h at 50° C.) was 16.2 mPa · s. The “Dynamic Viscosity” value ([1]; 10 μM, pH 10.0, 20 mM H2O2, 4.7 mM NaHCO3, 1 h at 50° C.) was 38.1 mPa.s, the “Dynamic Viscosity” value ([1]; 10 μM, pH 10.0, 20 mM H2O2, 1 h at 50° C.) was 11.9 mPa · s and the “Dynamic Viscosity” value ([1]; 10 μM, pH 10.5, 20 mM H2O2, 4.7 mM NaHCO3, 1 h at 50° C.) was 49.4 mPa.s. The “Dynamic Viscosity” value ([1]; 10 μM, pH 10.5, 20 mM H2O2, 1 h at 50° C.) was 11.1 mPa · s, the “Dynamic Viscosity” value ([1]; 10 μM, pH 11.0, 20 mM H2O2, 1 h at 50° C.) was 37.4 mPa · s and the “Dynamic Viscosity” value ([1]; Entry 4: 2.5 μM catalyst, 2.5 μM ascorbic acid, 2.5 μM Me3TACN ligand, 20 mM H2O2, 4.7 mM NaHCO3, pH 10, 60 min at 50° C.) was 72.5 mPa · s. The “Dynamic Viscosity” value ([1]; Entry 5: 2.5 μM catalyst, 2.5 μM ascorbic acid, 5 μM Me3TACN ligand, 20 mM H2O2, 4.7 mM NaHCO3, pH 10, 60 min at 50° C.) was 69.3 mPa · s, the “Dynamic Viscosity” value ([1]; Entry 6: 2.5 μM catalyst, 2.5 μM ascorbic acid, 10 μM Me3TACN ligand, 20 mM H2O2, 4.7 mM NaHCO3, pH 10, 60 min at 50° C.) was 61.7 mPa · s and the “Dynamic Viscosity” value ([1]; Entry 7: 2.5 μM catalyst, no ascorbic acid, no added ligand, 20 mM H2O2, 4.7 mM NaHCO3, pH 10, 60 min at 50° C.) was 78.1 mPa · s. The “Dynamic Viscosity” value ([1]; Entry 8: 2.5 μM catalyst, 2.5 μM Me3TACN ligand, 20 mM H2O2, 4.7 mM NaHCO3, pH 10, 60 min at 50° C.) was 73.3 mPa · s, the “Dynamic Viscosity” value ([1]; Entry 9: 2.5 μM catalyst, 5 μM Me3TACN ligand, 20 mM H2O2, 4.7 mM NaHCO3, pH 10, 60 min at 50° C.) was 66.6 mPa · s and the “Dynamic Viscosity” value ([1]; Entry 10: 2.5 μM catalyst, 10 μM Me3TACN ligand, 20 mM H2O2, 4.7 mM NaHCO3, pH 10, 60 min at 50° C.) was 56.8 mPa · s. The “Dynamic Viscosity” value ([1]; Entry 11: 5 μM catalyst, no added ligand, 20 mM H2O2, 4.7 mM NaHCO3, pH 10, 60 min at 50° C.) was 61.0 mPa · s, the “Dynamic Viscosity” value ([1]; Entry 12: 5 μM catalyst, 5 μM Me3TACN ligand, 20 mM H2O2, 4.7 mM NaHCO3, pH 10, 60 min at 50° C.) was 54.0 mPa · s and the “Dynamic Viscosity” value ([1]; Entry 13: 5 μM catalyst, 10 μM Me3TACN ligand, 20 mM H2O2, 4.7 mM NaHCO3, pH 10, 60 min at 50° C.) was 47.7 mPa · s. The “Dynamic Viscosity” value ([1]; Entry 14: 5 μM catalyst, 20 μM Me3TACN ligand, 20 mM H2O2, 4.7 mM NaHCO3, pH 10, 60 min at 50° C.) was 38.1 mPa · s, the “Dynamic Viscosity” value ([2]; 5 μM, pH 9.0, 20 mM H2O2, 4.7 mM NaHCO3, 1 h at 40° C.) was 17.9 mPa · s and the “Dynamic Viscosity” value ([2]; 10 μM, 3 mM PAA, 0.185M Tris buffer, pH 8.5, 60 min at 30° C.) was 94.8 mPa · s. For the same compound, the “Dynamic Viscosity” value ([2]; 10 μM, pH 10.5, 20 mM H2O2, 4.7 mM NaHCO3, 1 h at 40° C.) was 65.5 mPa · s.
